Results from patent US12187758B2 (ROME Therapeutics, Inc., priority 2022, dated 2025).

Experiments:
THP1-Dual KO-TREX1 cells = experiment: THP1 TREX1 KO inhibition assay (type 1 interferon response); assay type: cell-based; details: Homo sapiens, 144 h, type 1 interferon (QUANTI-LUC), 1 μM 5-aza-2′-deoxycytidine, six days
Summary of the method: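 THP1-Dual KO-TREX1 cells were treated with a dose titration of compound, alone or with 1 μM 5-aza-2′-deoxycytidine, for six days at 37 °C. Type 1 interferon was read as secreted luciferase (QUANTI-LUC) in the supernatant, and viability by CellTiter-Glo luminescence.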

[1] = system: SDH-A (succinate dehydrogenase-A); experiment: Mitochondria toxicity assay with PC3 cells, in-cell ELISA SDH-A; assay type: cell-based; details: 5 days treatment
Summary of the method: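 This in-cell ELISA was run on fixed, permeabilized PC3 cells after 5-day exposure to titrated compound, with cytotoxicity measured on a duplicate plate. Results are reported as categories A (<1.0 μM) to E (>100.0 μM).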

Compound	IC50 (THP1-Dual KO-TREX1 cells)	IC50 [1]
Nc1ccn([C@H]2C[C@H](O)[C@](CO)(CCl)O2)c(=O)n1 [Compound 2, 4-amino-1-((2R,4S,5R)-5-(chloromethyl)-4-hydroxy-5-(hydroxymethyl)tetrahydrofuran-2-yl)pyrimidin-2(1H)-one]	50 to 100 nM	> 100000 nM
C[C@@H]1[C@H](n2ccc(N)nc2=O)O[C@@](CO)(CCl)[C@H]1O [Compound 12, 4-amino-1-((2R,3S,4S,5R)-5-(chloromethyl)-4-hydroxy-5-(hydroxymethyl)-3-methyltetrahydrofuran-2-yl)pyrimidin-2(1H)-one]	> 1000 nM	> 100000 nM
CO[C@@H]1[C@H](n2ccc(N)nc2=O)O[C@@](CO)(CCl)[C@H]1O [Compound 13, 4-amino-1-((2R,3S,4S,5R)-5-(chloromethyl)-4-hydroxy-5-(hydroxymethyl)-3-methoxytetrahydrofuran-2-yl)pyrimidin-2(1H)-one]	> 1000 nM	> 100000 nM
Nc1nc(=O)n([C@H]2C[C@H](O)[C@](CO)(CCl)O2)cc1F [Compound 14, 4-amino-1-((2R,4S,5R)-5-(chloromethyl)-4-hydroxy-5-(hydroxymethyl)tetrahydrofuran-2-yl)-5-fluoropyrimidin-2(1H)-one]	100 to 250 nM	> 100000 nM
Nc1ncnc2c1ncn2[C@H]1C[C@H](O)[C@](CO)(CCl)O1 [Compound 15, (2R,3S,5R)-5-(6-amino-9H-purin-9-yl)-2-(chloromethyl)-2-(hydroxymethyl)tetrahydrofuran-3-ol]	> 1000 nM	> 100000 nM
Nc1ccn([C@H]2C[C@H](O)[C@](CO)(C3CC3)O2)c(=O)n1 [Compound 16, 4-amino-1-((2R,4S,5R)-5-cyclopropyl-4-hydroxy-5-(hydroxymethyl)tetrahydrofuran-2-yl)pyrimidin-2(1H)-one]	> 1000 nM	> 100000 nM
C[C@@H]1[C@H](n2ccc(N)nc2=O)O[C@](C)(CO)[C@H]1O [Compound 19, 4-amino-1-((2R,3S,4S,5R)-4-hydroxy-5-(hydroxymethyl)-3,5-dimethyltetrahydrofuran-2-yl)pyrimidin-2(1H)-one]	> 1000 nM	10000 to 50000 nM
C#C[C@]1(CO)O[C@@H](n2cnc3c(N)nc(Cl)nc32)C[C@@H]1O [Compound 25]	> 1000 nM	> 100000 nM
Nc1ccn([C@@H]2O[C@@](CO)(CCl)[C@@H](O)[C@@H]2F)c(=O)n1 [Compound 40, 4-amino-1-((2R,3S,4R,5R)-5-(chloromethyl)-3-fluoro-4-hydroxy-5-(hydroxymethyl)tetrahydrofuran-2-yl)pyrimidin-2(1H)-one]	> 1000 nM	> 100000 nM
CC[C@]1(CO)O[C@@H](n2ccc(N)nc2=O)C[C@@H]1O [Compound 44, 4-amino-1-((2R,4S,5R)-5-ethyl-4-hydroxy-5-(hydroxymethyl)tetrahydrofuran-2-yl)pyrimidin-2(1H)-one]	> 1000 nM	> 100000 nM
CC[C@]1(CO)O[C@@H](n2ccc(N)nc2=O)[C@@H](F)[C@@H]1O [Compound 51, 4-amino-1-((2R,3S,4R,5R)-5-ethyl-3-fluoro-4-hydroxy-5-(hydroxymethyl)tetrahydrofuran-2-yl)pyrimidin-2(1H)-one]	> 1000 nM	> 100000 nM
[N-]=[N+]=N[C@]1(CO)O[C@@H](n2cc(F)c(N)nc2=O)C[C@@H]1O [Compound 61, 4-amino-1-((2R,4S,5R)-5-azido-4-hydroxy-5-(hydroxymethyl)tetrahydrofuran-2-yl)-5-fluoropyrimidin-2(1H)-one]	> 1000 nM	> 100000 nM
Nc1nc(=O)n([C@@H]2O[C@@](CO)(CCl)[C@@H](O)[C@@H]2F)cc1F [Compound 67, 4-amino-1-[(2R,3S,4R,5R)-5-(chloromethyl)-3-fluoro-4-hydroxy-5-(hydroxymethyl)oxolan-2-yl]-5-fluoropyrimidin-2-one]	250 to 1000 nM	> 100000 nM
Nc1nc(=O)n([C@@H]2O[C@@](CO)(CF)[C@@H](O)[C@@H]2O)cc1F [Compound 72, 4-amino-5-fluoro-1-((2R,3S,4S,5R)-5-(fluoromethyl)-3,4-dihydroxy-5-(hydroxymethyl)tetrahydrofuran-2-yl)pyrimidin-2(1H)-one]	> 1000 nM	> 100000 nM
Nc1nc(=O)n([C@@H]2O[C@@](CO)(CF)[C@@H](O)[C@@H]2F)cc1F [Compound 85, 4-amino-5-fluoro-1-[(2R,3S,4R,5R)-3-fluoro-5-(fluoromethyl)-4-hydroxy-5-(hydroxymethyl)oxolan-2-yl] pyrimidin-2-one]	250 to 1000 nM	> 100000 nM
Nc1nc(=O)n([C@H]2C[C@H](O)[C@](CO)(CBr)O2)cc1F [Compound 88, 4-amino-1-((2R,4S,5R)-5-(bromomethyl)-4-hydroxy-5-(hydroxymethyl)tetrahydrofuran-2-yl)-5-fluoropyrimidin-2(1H)-one]	250 to 1000 nM	> 100000 nM
